From patent publication US20240041878A1, “APELIN RECEPTOR MODULATORS FOR TREATMENT OF A DISORDER OR DISEASE ASSOCIATED WITH BBB PERMEABILITY” (BioAge Labs, Inc., priority 2022, published 2024) come the findings set out here.

Assay [1] concerns Mouse primary astrocytes. The assay is described as follows: Astrocyte glutamate uptake. The assay is classed as cell-based. The following applies: RAC+APL [50 nM] versus RAC. The procedure: To stimulate astrocytes into a reactive state found in aging and neurodegenerative diseases per previous publications (Liddelow et al., 2017; Barbar et al., 2020), a combination of the cytokines TNF-α and IL-1α, and complement factor C1q, were added at 30 ng/mL, 3 ng/mL, and 400 ng/mL, respectively, into astrocyte culture media to make 'reactive astrocyte cocktail' (RAC) media. […] Bachem, Cat. #4029110), BAY-11-7082 (50 μM; Abcam, Cat. #ab141228) or equal volume of vehicle (0.01% DMSO in PBS) (hereafter referred to as 'RAC treatment'). […] Fresh HBSS was added to each well and 100 μM glutamate (Sigma, Cat. #G1251) was added to each well. Empty wells not containing cells were filled with HBSS and 100 μM [NT] negative control. Cells were incubated at room temperature for 3 hours before HBSS was collected and glutamate concentration determined by colorimetric assay (Sigma, Cat. #MAK004). Relative change in glutamate uptake was calculated compared to negative control wells.

For assay [2], the system named is Mouse astrocyte cells. The assay can be described thus: CXCL1 and IL-6 ELISA of astrocyte culture media after RAC treatment. The assay is classed as cell-based. The settings on record: RAC+APL [50 nM]. On the procedure: To stimulate astrocytes into a reactive state found in aging and neurodegenerative diseases per previous publications (Liddelow et al., 2017; Barbar et al., 2020), a combination of the cytokines TNF-α and IL-1α, and complement factor C1q, were added at 30 ng/mL, 3 ng/mL, and 400 ng/mL, respectively, into astrocyte culture media to make 'reactive astrocyte cocktail' (RAC) media. […] Bachem, Cat. #4029110), BAY-11-7082 (50 μM; Abcam, Cat. #ab141228) or equal volume of vehicle (0.01% DMSO in PBS) (hereafter referred to as 'RAC treatment'). Cells in Groups 3-6 were treated with RAC for 24 hours, with or without the test compounds (n=4 per group). • Group 1: Control [CON] • Group 2: CON+BGE-105 (50 nM) [CON+105] • Group 3: Reactive control treated with RAC only [RAC] • Group 4: RAC+BGE-105 (50 nM) [RAC+105] • Group 5: RAC+Pyrm-Apelin-13 (50 nM) • Group 6: RAC+BAY-11-7082 (NF-κB inhibitor; 50 μM) [RAC+BAY] Media from each tested cell group was collected for cytokine release analysis. Cells were lysed for RNA collection and RT-PCR was performed to synthesis cDNA under standard conditions. Next, transcriptome analysis was performed to determine the expression level of astrocyte genes or astrocyte responsive genes. Changes of expression was normalized to β-actin (FIGS. 8 and 9). Exemplary biomarkers include CCL2, CXCL10, CXCL11, CXCL1, CXCL2, CXCL3, CXCL8, EDN1, […]3, CIS, CTRL, C3, CFB, VEGF, and IL-6. For analysis of cytokines secreted by astrocytes, culture media was collected after RAC treatment, centrifuged at 10,000 RPM for 5 minutes to pellet any debris, and supernatant was transferred to a new tube and assayed immediately or frozen at -80° C. For individual analysis of CXCL1 or IL-6 concentrations, cell culture supernatant was diluted 1:50 or 1:10, respectively, and assessed using mouse-specific ELISA kits per manufacturer's protocols (R&D Systems, Cat. #DY453 and #DY406).
(ELISA stands for enzyme-linked immunosorbent assay.)

For the substance (Pyr^1)-Apelin-13 [reference compound], the “percentage of glutamate uptake in RAC astrocytes” value in assay [1] was “significantly and statistically increased”. Further, in assay [2], the “CXCL1 concentration/release compared with BGE-105 [50 nM] group” value was “no significant difference” and the “IL-6 concentration/release compared with BGE-105 [50 nM] group” value is “no significant difference”.
